# Tests used:
# AMARE (redroot pigweed) = assay: Pre-emergence herbicidal activity, warm season; format: in vivo, Amaranthus retroflexus; conditions: GR80 = lowest tested rate (300, 100, 30, 10 g/ha) with 80% or greater inhibition; approx. 14 days after treating; 30/21° C.
# Procedure, shortened: (§1)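 Seeds sown in sterilised fertilised topsoil received surface-applied compound in 50:50 acetone/water, typically at 300, 100, 30 and 10 g/ha, then greenhouse-grown at 30/21° C (warm-season species) or 18/13° C (cool-season species). Percent inhibition versus untreated plants was scored at about 14 days, giving GR80; an asterisk marks activity short of 80% at the top rate.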
# DATST (jimsonweed) = assay: Pre-emergence herbicidal activity, warm season; format: in vivo, Datura stramonium; conditions: GR80 = lowest tested rate (300, 100, 30, 10 g/ha) with 80% or greater inhibition; approx. 14 days after treating; 30/21° C.
# Procedure, shortened: as §1
# [1] = system: CHEAL (common lambsquarters); assay: Pre-emergence herbicidal activity, warm season; format: in vivo, Chenopodium album; conditions: GR80 = lowest tested rate (300, 100, 30, 10 g/ha) with 80% or greater inhibition; approx. 14 days after treating; 30/21° C.
# Procedure, shortened: as §1
# ECHCG (barnyardgrass) = assay: Pre-emergence herbicidal activity, warm season; format: in vivo, Echinochloa crus-galli; conditions: GR80 = lowest tested rate (300, 100, 30, 10 g/ha) with 80% or greater inhibition; approx. 14 days after treating; 30/21° C.
# Procedure, shortened: as §1
# [2] = system: PANMI (wild proso millet); assay: Pre-emergence herbicidal activity, warm season; format: in vivo, Panicum miliaceum; conditions: GR80 = lowest tested rate (300, 100, 30, 10 g/ha) with 80% or greater inhibition; approx. 14 days after treating; 30/21° C.
# Procedure, shortened: as §1
# [3] = system: SORHA (johnsongrass (seedling)); assay: Pre-emergence herbicidal activity, warm season; format: in vivo, Sorghum halepense; conditions: GR80 = lowest tested rate (300, 100, 30, 10 g/ha) with 80% or greater inhibition; approx. 14 days after treating; 30/21° C.
# Procedure, shortened: as §1
# SETFA (giant foxtail) = assay: Pre-emergence herbicidal activity, warm season; format: in vivo, Setaria faberi; conditions: GR80 = lowest tested rate (300, 100, 30, 10 g/ha) with 80% or greater inhibition; approx. 14 days after treating; 30/21° C.
# Procedure, shortened: as §1
# PANDI (fall panicum) = assay: Pre-emergence herbicidal activity, warm season; format: in vivo, Panicum dichotomiflorum; conditions: GR80 = lowest tested rate (300, 100, 30, 10 g/ha) with 80% or greater inhibition; approx. 14 days after treating; 30/21° C.
# Procedure, shortened: as §1
# [4] = system: BRAPP (broadleaf signalgrass); assay: Pre-emergence herbicidal activity, warm season; format: in vivo, Brachiaria platyphylla; conditions: GR80 = lowest tested rate (300, 100, 30, 10 g/ha) with 80% or greater inhibition; approx. 14 days after treating; 30/21° C.
# Procedure, shortened: as §1
# DIGSA (large crabgrass) = assay: Pre-emergence herbicidal activity, warm season; format: in vivo, Digitaria sanguinalis; conditions: GR80 = lowest tested rate (300, 100, 30, 10 g/ha) with 80% or greater inhibition; approx. 14 days after treating; 30/21° C.
# Procedure, shortened: as §1
# [5] = system: GALAP (catchweed bedstraw); assay: Pre-emergence herbicidal activity, cool season; format: in vivo, Galium aparine; conditions: lowest tested rate with 80% or greater inhibition; rates 300, 100, 30, 10 g/ha; about 14 days
# Procedure, shortened: as §1
# POLCO (wild buckwheat) = assay: Pre-emergence herbicidal activity, cool season; format: in vivo, Polygonum convolvulus; conditions: lowest tested rate with 80% or greater inhibition; rates 300, 100, 30, 10 g/ha; about 14 days
# Procedure, shortened: as §1
# SINAR (wild mustard) = assay: Pre-emergence herbicidal activity, cool season; format: in vivo, Sinapis arvensis; conditions: lowest tested rate with 80% or greater inhibition; rates 300, 100, 30, 10 g/ha; about 14 days
# Procedure, shortened: as §1
# KCHSC (kochia) = assay: Pre-emergence herbicidal activity, cool season; format: in vivo, Kochia scoparia; conditions: lowest tested rate with 80% or greater inhibition; rates 300, 100, 30, 10 g/ha; about 14 days
# Procedure: (§2) Tables 5 to 8 summarize results of tests conducted as described below to determine the pre-emergence herbicidal activity, in the form of a GR80 value, of illustrative compounds of this invention. […] Compounds of the invention were typically applied at rates of 300, 100, 30, and 10 g/ha. Where herbicidal activity was evident but 80% inhibition was not achieved at the highest rate tested, an asterisk (*) is shown in the following tables.
# (§3) The pre-emergence tests were conducted by the following procedure. Topsoil was sieved to pass through a 1.27 cm screen. Fertilizer was added to the topsoil and the mixture was then sterilized by heating. The topsoil mixture was placed in a pot and compacted to a depth of 1.0 to 1.25 cm from the top of the pot. Seeds of each of several monocotyledonous and dicotyledonous annual plant species were placed on top of the soil. Additional soil was subsequently placed over the seeds to level-fill the pot. A known amount of each test compound dissolved or suspended in an appropriate organic solvent was diluted with a 50:50 mix of acetone and water and applied to the surface of the soil. After treatment the plants were placed in a greenhouse where they received 0.64 cm of overhead irrigation. All subsequent watering consisted of a light overhead mist and/or subirrigation as needed for germination and growth. Tables 5 and 6 below relate to warm season plant species which were placed after pre-emergence treatment in a greenhouse with a 30/21° C. day/night temperature regime. Tables 7 and 8 below relates to cool season plant species placed after pre-emergence treatment in a greenhouse or growth chamber with an 18/13° C. day/night temperature regime.
# (§4) Approximately 14 days after planting and treating, the plants were observed and herbicidal efficacy recorded as percent inhibition by comparison with untreated plants.
# (§5) The plant species usually regarded as weeds which were utilized in the tests are identified in the tables below according to the following legend, in which “d” indicates a dicotyledonous species and “m” a monocotyledonous species. All monocotyledonous species included in the tests herein are grasses.
# [6] = system: VERPE (creeping speedwell); assay: Pre-emergence herbicidal activity, cool season; format: in vivo, Veronica persicaria; conditions: lowest tested rate with 80% or greater inhibition; rates 300, 100, 30, 10 g/ha; about 14 days
# Procedure, shortened: as §1
# SASKR (russian thistle) = assay: Pre-emergence herbicidal activity, cool season; format: in vivo, Salsola kali; conditions: lowest tested rate with 80% or greater inhibition; rates 300, 100, 30, 10 g/ha; about 14 days
# Procedure, shortened: as §1
# STEME (common chickweed) = assay: Pre-emergence herbicidal activity, cool season; format: in vivo, Stellaria media; conditions: lowest tested rate with 80% or greater inhibition; rates 300, 100, 30, 10 g/ha; about 14 days
# Procedure, shortened: as §1
# [7] = system: LAMPU (purple deadnettle); assay: Pre-emergence herbicidal activity, cool season; format: in vivo, Lamium purpureum; conditions: lowest tested rate with 80% or greater inhibition; rates 300, 100, 30, 10 g/ha; about 14 days
# Procedure, shortened: as §1
# ALOMY (blackgrass) = assay: Pre-emergence herbicidal activity, cool season; format: in vivo, Alopecurus myosuroides; conditions: GR80 = lowest tested rate (300, 100, 30, 10 g/ha) with 80% or greater inhibition; approx. 14 days after treating; 18/13° C.
# Procedure, shortened: as §1
# [8] = system: AGSST (creeping bentgrass); assay: Pre-emergence herbicidal activity, cool season; format: in vivo, Agrostis stolonifera; conditions: GR80 = lowest tested rate (300, 100, 30, 10 g/ha) with 80% or greater inhibition; approx. 14 days after treating; 18/13° C.
# Procedure, shortened: as §1
# [9] = system: AGRRE (quackgrass (seedling)); assay: Pre-emergence herbicidal activity, cool season; format: in vivo, Elymus repens; conditions: GR80 = lowest tested rate (300, 100, 30, 10 g/ha) with 80% or greater inhibition; approx. 14 days after treating; 18/13° C.
# Procedure: as §2, §3, §4, §5
# CONAR (field bindweed) = assay: Pre-emergence herbicidal activity, warm season; format: in vivo, Convolvulus arvensis; conditions: GR80 = lowest tested rate (300, 100, 30, 10 g/ha) with 80% or greater inhibition; approx. 14 days after treating; 30/21° C.
# Procedure: as §2, §3, §4, §5
# POROL (common purslane) = assay: Pre-emergence herbicidal activity, warm season; format: in vivo, Portulaca oleracea; conditions: GR80 = lowest tested rate (300, 100, 30, 10 g/ha) with 80% or greater inhibition; approx. 14 days after treating; 30/21° C.
# Procedure, shortened: as §1
# [10] = system: CIRAR (canada thistle (seedling)); assay: Pre-emergence herbicidal activity, warm season; format: in vivo, Cirsium arvense; conditions: GR80 = lowest tested rate (300, 100, 30, 10 g/ha) with 80% or greater inhibition; approx. 14 days after treating; 30/21° C.
# Procedure, shortened: as §1
# SETVI (green foxtail) = assay: Pre-emergence herbicidal activity, cool season; format: in vivo, Setaria viridis; conditions: GR80 = lowest tested rate (300, 100, 30, 10 g/ha) with 80% or greater inhibition; approx. 14 days after treating; 18/13° C.
# Procedure, shortened: as §1
# LOLMG (annual ryegrass) = assay: Pre-emergence herbicidal activity, cool season; format: in vivo, Lolium multiflorum; conditions: GR80 = lowest tested rate (300, 100, 30, 10 g/ha) with 80% or greater inhibition; approx. 14 days after treating; 18/13° C.
# Procedure, shortened: as §1
# [11] = system: AEGCY (jointed goatgrass); assay: Pre-emergence herbicidal activity, cool season; format: in vivo, Aegilops cylindrica; conditions: GR80 = lowest tested rate (300, 100, 30, 10 g/ha) with 80% or greater inhibition; approx. 14 days after treating; 18/13° C.
# Procedure: as §2, §3, §4, §5
Structure (SMILES),Pre-emergence activity (GR80) AMARE (AMARE (redroot pigweed)),Pre-emergence activity (GR80) CHEAL [1],Pre-emergence activity (GR80) PANMI [2],Pre-emergence activity (GR80) SORHA [3],Pre-emergence activity (GR80) SETFA (SETFA (giant foxtail)),Pre-emergence activity (GR80) DIGSA (DIGSA (large crabgrass)),"Pre-emergence activity GR80, GALAP [5]","Pre-emergence activity GR80, POLCO (POLCO (wild buckwheat))","Pre-emergence activity GR80, SINAR (SINAR (wild mustard))","Pre-emergence activity GR80, VERPE [6]","Pre-emergence activity GR80, SASKR (SASKR (russian thistle))","Pre-emergence activity GR80, STEME (STEME (common chickweed))","Pre-emergence activity GR80, LAMPU [7]",Pre-emergence activity (GR80) ALOMY (ALOMY (blackgrass)),Pre-emergence activity (GR80) AGSST [8],also measured
CCOC(=O)C(F)(F)S(=O)(=O)c1ncn(C(=O)N(CC)CC)n1 [Example 7],300 g/ha,300 g/ha,300 g/ha,300 g/ha,300 g/ha,300 g/ha,[empty],[empty],"* (activity observed, at least at highest rate, but <80% inhibition)",[empty],[empty],30 g/ha,[empty],"* (activity observed, at least at highest rate, but <80% inhibition)",300 g/ha,"Pre-emergence activity (GR80) DATST (DATST (jimsonweed)): 300 g/ha; Pre-emergence activity (GR80) ECHCG (ECHCG (barnyardgrass)): 300 g/ha; Pre-emergence activity (GR80) PANDI (PANDI (fall panicum)): 300 g/ha; Pre-emergence activity (GR80) BRAPP [4]: 300 g/ha; Pre-emergence activity GR80, KCHSC (KCHSC (kochia)): [empty]; Pre-emergence activity (GR80) AGRRE [9]: 300 g/ha"
"O=C(N1CCCC1)n1cnc(S(=O)(=O)C(F)(F)Br)n1 [Example 23, 3-(bromodifluoromethylsulfonyl)-1-(pyrrolidinocarbonyl)-1,2,4-triazole]",300 g/ha,300 g/ha,100 g/ha,300 g/ha,100 g/ha,300 g/ha,300 g/ha,30 g/ha,300 g/ha,[empty],[empty],100 g/ha,100 g/ha,300 g/ha,100 g/ha,Pre-emergence activity (GR80) CONAR (CONAR (field bindweed)): 300 g/ha; Pre-emergence activity (GR80) POROL (POROL (common purslane)): 300 g/ha; Pre-emergence activity (GR80) CIRAR [10]: 300 g/ha; Pre-emergence activity (GR80) SETVI (SETVI (green foxtail)): 100 g/ha; Pre-emergence activity (GR80) LOLMG (LOLMG (annual ryegrass)): 300 g/ha; Pre-emergence activity (GR80) AEGCY [11]: 300 g/ha

# From US6461997B1, “Triazole sulfones having herbicidal activity” (Monsanto Technology LLC, priority 1999, dated 2002)
